“Also recorded” adds a separate entry of the source. Read-outs that look alike come from different tables or passages of the source.
Legend:
McinOBP4-Wt [1] = biological target: T1, McinOBP4-Wt (Macrocentrus cingulum, UniProt A0A1S6PU99); assay: Competitive binding assay with 1-NPN as fluorescent reporter, McinOBP4-Wt
Description: (§1) One cm light path fluorimeter quartz cuvette was used on a FluoroMax-4 (Horiba Scientific, USA) spectrophotometer at room temperature for fluorescence spectra recording and excitation wavelength of 337 nm was chosen and 300–500 nm for the emission with a 5 nm slit width. Spectra were recorded with 2 μM McinOBP4 in 50 mM Tris-HCl of different pH value, while ligands were added as 1 mM methanol solutions.
The probe was excited at 337 nm and emission spectra were recorded between 300 and 500 nm.
(§2) It was assumed that McinOBP4 was 100% active and the protein-ligand binding was 1:1 ratio at saturation. The obtained data were processed with Graphpad Prism software (Graphpad Software, Inc.) and using a software package SPSS Version 16 (http://www.spss.com). The maximum intensity values of emission were plotted against the 1-NPN concentration for the KD determination, and the values of intensity were used for the evaluation the bound ligands. The curve was linearized using Scatchard Plots to verify the confidence of KD.

McinOBP4-Wt [2] = biological target: T1, McinOBP4-Wt; assay: Fluorescence binding of 1-NPN to McinOBP4-Wt
Description: as §1
To measure the affinity of the fluorescence ligand N-phenyl-1-naphthylamine (1-NPN) to McinOBP4-wt and mutants, a 2 μM solution of the protein in 50 mM Tris-HCl, pH 7.4, was titrated with aliquots of 1 mM ligand in high-performance liquid chromatography (HPLC) purity grade methanol to final concentrations of 2–20 μM. The probe was excited at 337 nm and emission spectra were recorded between 300 and 500 nm. While the other competitor were measured in competitive binding assays, where 1-NPN using as the fluorescent reporter at 2 μM concentration and each competitor (odorants) over concentration ranges 2–14 μM, depending on the different odorants.
as §2, with “KD. IC50 for other corn odorants were calculated using with Microsoft excel 2010, and the equation, KD = [IC50]/[1+(1–NPN)/K1−NPN] was used for the KD values calculation. In this equation [IC50] stands for the ligand concentration where the ligand quenching the fluorescence intensity of 1-NPN to 50%, [1-NPN] and K1−NPN mean free 1-NPN concentration and McinOBP4/1-NPN complex KD values, respectively (Campanacci et al., [2001]; Ban et al., [2002]).” for “KD.”

McinOBP4-M1 = biological target: T2, McinOBP4-M1 (Macrocentrus cingulum, UniProt A0A1S6PU99); assay: Fluorescence binding of 1-NPN to C-terminal truncated mutant McinOBP4-M1
T2 sequence (A0A1S6PU99 23-134): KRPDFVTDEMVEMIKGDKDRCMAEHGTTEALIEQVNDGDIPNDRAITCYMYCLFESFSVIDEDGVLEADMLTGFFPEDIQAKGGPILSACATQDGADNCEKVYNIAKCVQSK
Description: (§3) The C-terminal tail truncated form of the McinOBP4 was obtained by removing the last 8 amino acids and inserting a stop codon after Leu112. The McinOBP4-Wt/pGEM-T Easy construct was used as a template. A pair of primer was designed manually and as listed sense primer 5′- […] -3′ (underlined with BamHI) and antisense primer, 5′- […] -3′ (underlined with HindIII) where 113th position residues used as a stop codon. The mutant M2 (Met119) was prepared along with the pair of primer as sense primer 5′- […] -3′ (under lined with BamHI), and antisense primere 5′- […] -3′ (under lined with HindIII). […]
as §1, with “solutions. […]” for “solutions.”
(§4) It was assumed that McinOBP4 was 100% active and the protein-ligand binding was 1:1 ratio at saturation. […] IC50 for other corn odorants were calculated using with Microsoft excel 2010, and the equation, KD = [IC50]/[1+(1–NPN)/K1−NPN] was used for the KD values calculation. […]

McinOBP4-M2 [3] = biological target: T3, McinOBP4-M2 (Macrocentrus cingulum, UniProt A0A1S6PU99, M141L); assay: Fluorescence binding of 1-NPN to mutant McinOBP4-M2 (Met119 replaced by Leu); conditions: McinOBP4-M2, pH 7.4; read-out: Dissociation constant (KD) of 1-NPN
T3 sequence (A0A1S6PU99 23-142 M141L): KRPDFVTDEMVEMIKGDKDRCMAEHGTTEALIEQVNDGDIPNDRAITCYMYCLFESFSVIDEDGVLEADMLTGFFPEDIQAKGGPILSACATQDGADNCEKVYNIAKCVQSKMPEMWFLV
Description: as §3
as §1, with “solutions. […]” for “solutions.”
as §4

McinOBP4-M2 [4] = biological target: T3, McinOBP4-M2; assay: Competitive binding assay with 1-NPN as fluorescent reporter, McinOBP4-M2; conditions: compared to wild type and M1
[5] = recombinant McinOBP4-Wt, pH = 7.4, calculated from IC50, read-out: KD
[6] = recombinant McinOBP4-Wt, pH = 7.4, displacement of 1-NPN, read-out: IC50
[7] = McinOBP4-Wt, pH 7.4, read-out: KD

T1 sequence (A0A1S6PU99 entry or part of it): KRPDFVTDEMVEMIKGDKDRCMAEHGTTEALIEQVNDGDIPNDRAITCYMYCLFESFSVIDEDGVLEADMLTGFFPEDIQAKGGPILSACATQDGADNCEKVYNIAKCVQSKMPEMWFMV

Kd (McinOBP4-Wt [1]; [5]) [µM] | IC50 (McinOBP4-Wt [1]; [6]) [µM] | Compound | IC50 (McinOBP4-Wt [1]) [µM] | Kd (McinOBP4-Wt [1]) [µM] | further results
19.1 | 24.5 | C=C1CC/C=C(\C)CC[C@@H]2[C@@H]1CC2(C)C (relative stereo) [Trans Caryophelle] | – | – | –
– | – | c1ccc(Nc2cccc3ccccc23)cc1 [1-NPN, N-phenyl-1-naphthylamine] | – | – | Affinity of 1-NPN in acidic condition (McinOBP4-Wt [2]; acidic condition (pH 4.4)): did not observe significant loss of binding activity; Affinity of 1-NPN in basic condition (McinOBP4-Wt [2]; basic condition): increase in basic condition; also recorded: increase in affinity; Kd (McinOBP4-Wt [2]; pH 7.4, read-out: Dissociation constant (KD) of 1-NPN): 5.69 ± 0.83 µM; Affinity of 1-NPN in basic condition (McinOBP4-M1; McinOBP4-M1, basic condition): increase in basic condition; also recorded: increase in affinity; Kd (McinOBP4-M1; McinOBP4-M1, pH 7.4, read-out: Dissociation constant (KD) of 1-NPN): 6.99 ± 0.59 µM; Kd (McinOBP4-M2 [3]): 8.85 ± 0.63 µM
19.8 | 25.4 | C=CC(O)CC (centres unmarked) [1-Penten-3-ol] | – | – | –
36.6 | 47 | CCCCC(C)CC(C)C (centres unmarked) [2,4 Dimethyl Octane] | – | – | –
15.7 | 20.1 | CCCCCc1ccco1 [2-Pentylfuran] | – | – | –
– | – | CC/C=C\CCO [Cis-3-Hexen-1-ol] | 19.9 | 15.5 | –
21.3 | 27.4 | C=C/C(C)=C/C/C=C(\C)CCC=C(C)C [Farnsene] | – | – | –
13 | 16.8 | CCCCCCC=O [Heptanal] | – | – | –
– | – | C=CC(C)(O)CCC=C(C)C (centres unmarked) [Linalool] | 12.3 | 9.61 ± 0.23 | Binding affinity to McinOBP4-M2 compared to wild type and first mutant (McinOBP4-M2 [4]): lower binding affinities; also recorded: much weaker
17.9 | 23 | C=CC(=C)CCC=C(C)C [Myrcene] | – | – | –
12.5 | 16.1 | CCCCCCCCC=O [Nonanal] | – | – | –
– | – | CCC/C=C/C=O [Trans-2-Hexen-1-al] | 16.4 | 12.8 | –
– | – | CCC/C=C/CO [Trans-2-Hexen-1-ol] | 19.8 | 15.4 | –
12.8 | 16.5 | CCCCCC/C=C/C=O [Trans-2-Nonenal] | – | – | –
– | – | CC(=O)/C=C/C1C(C)=CCCC1(C)C (stereo not drawn) [α-Ionone] | 24.1 | 18.7 | –
– | – | CC1=CCC2CC1C2(C)C (stereo not drawn) [α-Pinene] | 34.2 | 26.6 | –
– | – | CC(=O)/C=C/C1=C(C)CCCC1(C)C [β-Ionone] | 15.1 | 11.8 | Binding affinity to McinOBP4-M2 compared to wild type and first mutant (McinOBP4-M2 [4]): lower binding affinities; also recorded: much weaker
– | – | C=C1CCC2CC1C2(C)C (stereo not drawn) [β-Pinene] | 18.8 | 14.7 | –

Compound | Kd (McinOBP4-Wt [1]; [5]) [µM] | IC50 (McinOBP4-Wt [1]; [6]) [µM] | IC50 (McinOBP4-Wt [1]) [µM] | Kd (McinOBP4-Wt [1]) [µM] | further results
C=C(C)[C@H]1CC=C(C)CC1 [Limonene] | 4.12 | 5.29 | – | – | Binding affinity to McinOBP4-M2 compared to wild type and first mutant (McinOBP4-M2 [4]): lower binding affinities; also recorded: much weaker; Kd (McinOBP4-Wt [1]; [7]): 4.12 ± 0.7 µM
CCCCC/C=C/C=O [Trans-2-Octenal] | 11.9 | 15.3 | – | – | Binding affinity to McinOBP4-M2 compared to wild type and first mutant (McinOBP4-M2 [4]; listed as trans-2-octanal): lower binding affinities; also recorded: much weaker; Kd (McinOBP4-Wt [1]; [7]): 11.8 ± 0.57 µM
CC/C=C/CCOC(C)=O [Trans-3-Hexen-1-ol-Acetate] | 6.99 | 8.98 | – | – | Binding affinity to McinOBP4-M2 compared to wild type and first mutant (McinOBP4-M2 [4]): lower binding affinities; also recorded: much weaker; Kd (McinOBP4-Wt [1]; [7]): 6.99 ± 1.23 µM
Hexenal | 26.9 | 34.6 | – | – | –

Reference: paper PMC5297413, “C-terminus Methionene Specifically Involved in Binding Corn Odorants to Odorant Binding Protein4 in Macrocentrus cingulum” (Frontiers in Physiology, 2017)
